Source: patent publication US11975055B2 (priority 2018, dated 2024)

System: rat model of MRMT-1 induced bone cancer pain
Conditions: in vivo

CN1CC[C@]23c4c5ccc(O)c4O[C@H]2[C@@H](O)C=C[C@H]3[C@H]1C5 [Morphine]
paw withdrawal threshold (allodynia induced by bone cancer): reversal of deficit in paw withdrawal threshold
